Assay results taken from patent US4136163A, “P-Menthane carboxamides having a physiological cooling effect” (Wilkinson Sword Limited, priority 1971, dated 1979).

What was measured:
[1] = tested on: cold receptors; assay: Threshold test: minimum quantity of compound on filter paper square on tongue giving a noticeable cooling effect, selected panel of 6 people; type: in vivo, human; conditions: panel of 6 people, cooling reported 50% of the time
Excerpt: For example, a controlling factor in the onset of cooling effect, its intensity and longevity will be the rate of penetration of the compounds through the epidermis and this will vary in different locations on the human body.
It will also benoted that the described test procedure is done on a statistical basis. This is necessary since sensitivity to these compounds will vary not only from compound to compound and from one part of the body to another, but also from one individual to another. Tests of this nature are commonly used in the testing of the organoleptic properties, e.g. taste, smell etc. of organic and inorganic compounds, see Kirk-Othmer: Encyclopedia of Chemical Technology, 2nd. Ed.
The following test procedure is aimed at determining the minimum quantity of the test compound required to produce a noticeable cooling effect on a person of average sensitivity, this minimum quantity being termed the threshold for that particular compound. The tests are carried out on a selected panel of 6 people of median sensitivity to 1-menthol.
To select a test panel of average sensitivity the following procedure is used. Known quantities of 1-menthol in solution in petroleum ether (bp.40-60) are placed on 5 mm. squares of filter paper, whereafter the solvent is allowed to evaporate. A panel of observers is enrolled and asked to place one impregnated square at a time on the tongue and to report on the presence or absence of a cooling effect. […] Conveniently, one starts with squares containing 2.0 μg. 1-menthol, the amount on each successive square being half that of the preceding square, i.e. the second test square will contain 1.0 μg, the third 0.5 μg and so on. Each quantity is tested on the tongue at least 10 times. In this way, the thresholds to cold receptor stimulus by 1-menthol are determined for each individual of the panel, the threshold for each individual being that amount of 1-menthol for which, in a series of not less than 10 test applications, a cooling effect is reported 50% of the time.
To test the activity of compounds according to this invention, the above procedure is repeated using only the 6 selected panel members of average sensitivity to 1-menthol. The individual thresholds for each test compound on each of the 6 selected panel members are determined and averaged. Those compounds whose average threshold on the select test panel is 100 μg or less are regarded as having cooling activity in accordance with this invention.

[2] = tested on: cold receptors; assay: Cooling effect of consumer product applied to skin (face, scalp, lips, forehead); type: in vivo, human
Description: Into two separate samples of the base lotion were added 2.0% by weight based on the total composition of N-ethyl-p-menthane-3-carboxamide and N,N-dimethyl-p-menthane-3-carboxamide, each into a different one of the two samples.
To the recipe was added 3.0%, based on the total composition of N-p-menth-3-oylglycine methyl ester. […]
Sodium lauryl ether sulphate, 10 g., was dispersed in 90 g. water in a high speed mill. To the dispersion was added 3.3% by weight of N-(2-hydroxy-n-propyl)-p-menthane-3-carboxamide. […]
The sodium stearate was dissolved by stirring in a warm mixture of the ethanol propylene glycol and water. To the solution was added the perfume and 3.0% of N-(2-hydroxy-n-propyl)-p-menthane-3-carboxamide and the mixture then allowed to solidify into a waxy cake. […]
This Example illustrates now the physiological cooling effect of the compounds of this invention varies according to the locality of application.
In the course of grinding there was added 3.0% of N-n-propyl-p-menthane-3-carboxamide. […]
To this liquid was added 1.0% of N-ethyl-p-menthane-3-carboxamide. A paper tissue was then soaked in the liquid.

[3] = tested on: cold receptors; assay: Cooling effect of consumer product in the mouth / on the tongue; type: in vivo, human
Description: To the compositions was added 0.1% of N-n-propyl-p-menthane-3-carboxamide.
Shortly before completion of the blending operation 0.5% by weight of N-(p-menth-3-oyl) morpholine was added to the blender. […]
N-(2-hydroxy-n-propyl)-p-menthane-3-carboxamide was added to a proprietary gin in an amount of 0.08%.
99.5% sucrose and 0.5% citric acid were carefully fused together in the presence of a trace of water. Just before casting the melt onto a chilled plate 0.13% of N,N-dimethyl-p-menthane-3-carboxamide were repidly stirred in. The melt was then cast.
Water was added to icing sugar at 50° C to form a stiff paste. 0.05% of N-ethyl-p-menthane-3-carboxamide was then stirred into a paste and the mixture allowed to set. […]
A proprietary ice cream mixture was mixed in accordance with the manufactures instructions. Shortly before freezing N-p-menth-3-oyl-β-aminopropionic acid n-propyl ester was added in an amount of 0.05%. […]

[4] = literature; cited from earlier work
[5] = tested on: cold receptors; assay: Cooling effect of eye lotion when used to bathe the eyes; type: in vivo, human; conditions: Example 9, eye lotion, 0.003%, eyeball and eyelids
Description: To the formulation was added 0.003%, based on the total composition of N-(2-hydroxyethyl)-p-menthane carboxamide.

[6] = tested on: cold receptors; assay: Cooling effect in the stomach after swallowing tablet; type: in vivo, human; conditions: 0.05%
Excerpt: Added to the mixture during grinding was 0.05% of N-ethyl-p-menthane- 3-carboxamide. After mixing the mixture was pressed into 0.5 g tablets.
Soluble aspirin (calcium acetylsalicylate) tablets were impregnated with 0.05% of N-ethyl-p-menthane-3-carboxamide by absorption in the tablet of a metered drop of an ethanolic solution of the carboxamide.

[7] = Example 2, after shave lotion, 2.0%, face

With CC(O)CNC(=O)C1CC(C)CCC1C(C)C (stereo not shown) [H, --CH2 CH(OH)CH3, N-(2-hydroxy-n-propyl)-p-menthane-3-carboxamide] the “Threshold (average minimum quantity to produce a noticeable cooling effect)” value (“Threshold” for short) [1] was 5.5 µg, the cooling effect ([2]; Example 5, hair shampoo, 3.3%, scalp) was “a fresh, cool sensation is noticed on the scalp” and the cooling effect ([2]; Example 7, solid cologne, 3.0%, forehead) was “a very strong and long lasting cooling effect is obtained”. For the same compound, the cooling effect ([3]; Example 15, gin, 0.08%, mouth) was “a very strong cooling after-effect is obtained in the mouth”.
With CCCNC(=O)C1CC(C)CCC1C(C)C (stereo not shown) [H, --C3 H7 (n), N-n-propyl-p-menthane-3-carboxamide] the “Threshold” value [1] was 0.8 µg, the cooling effect ([2]; Example 13, talcum powder, 3.0%) was “freshening and cooling effect” and the cooling effect ([3]; Example 10, mouthwash concentrate, 0.1%, diluted with approximately 10 times its own volume of water) was “a strong and long lasting cooling effect is obtained in the mouth”.
In the case of CC(C)C1CCC(C)C(O)C1O (stereo not shown) [2,3-p-menthane diol], the “cooling taste or refreshing effect” value [4] is given as “sharp cooling taste”.
For CC1CCC(C(C)C)C(C(=O)NCCO)C1 (stereo not shown) [H, --CH2 CH2 OH, N-(2-hydroxyethyl)-p-menthane carboxamide], the “Threshold” value [1] was 5 µg and the cooling effect [5] was “a cool fresh sensation is apparent on the eyeball and eyelids”.
For CCC(CC)C(=O)N(C)C [N,N-Dimethyl 2-ethylbutanamide], the “cooling taste or refreshing effect” value [4] is given as “refreshing effect”.
For CC1CCC(C(C)C)C(C(=O)N2CCOCC2)C1 (stereo not shown) [--CH2 CH2 OCH2 CH2 --, N-(p-menth-3-oyl)morpholine], the “Threshold” value [1] was 5.5 µg, the “cooling effect on skin” value ([2]; Example 11, applied to the skin as an alcoholic solution) was “relatively weak” and the “cooling effect on mucous membranes of the mouth” value ([3]; Example 11, applied to the mucous membranes of the mouth) was “very pronounced”. The cooling effect ([3]; Example 11, toothpaste, 0.5%, mouth) was “a strong cooling effect is noticed in the mouth”.
With CC1CCC(C(C)C)C(C(=O)N(C)C)C1 (stereo not shown) [--CH3, --CH3, N,N-dimethyl-p-menthane-3-carboxamide] the “Threshold” value [1] was 1.5 µg, the cooling effect ([2]; Example 1, aerosol shaving soap, 1.0%, face) was “a fresh cool sensation was distinctly noticeable on the face” and the cooling effect [2, 7] was “a clearly noticeable cooling effect became apparent after a short interval of time”. For the same compound, the cooling effect ([3]; Example 16, boiled sweet, 0.13%, mouth) was “marked cooling effect on the mouth”.
In the case of CC1CCC(C(C)C)C(C(=O)NC(C)(C)CO)C1 (stereo not shown) [H, --C(CH3)2 CH2 OH, N-(1,1-dimethyl-2-hydroxyethyl)-p-menthane-3-carboxamide], the “Threshold” value [1] is reported as 0.4 µg and the cooling effect ([3]; Example 14, soft drink, 0.02% in concentrate, diluted with water) is reported as “pleasantly cool after-effect”.
With CC1CCC(C(C)C)C(C(=O)N(CCO)CCO)C1 (stereo not shown) [--CH2 CH2 OH, --CH2 CH2 OH, N,N-bis(2-hydroxyethyl)-p-menthane-3-carboxamide] the “Threshold” value [1] was 50 µg and the cooling effect ([3]; Example 18, chewing gum, 5.0%, mouth) was “marked cooling effect in the mouth”.
In the case of CCNC(=O)C1CC(C)CCC1C(C)C (stereo not shown) [H, --C2 H5, N-ethyl-p-menthane-3-carboxamide], the “Threshold” value [1] is reported as 0.3 µg, the cooling effect [2, 7] is reported as “a clearly noticeable cooling effect became apparent after a short interval of time” and the cooling effect ([2]; Example 24, cleansing tissue, 1.0% in liquid, skin) is reported as “a fresh cool sensation developed on the skin after a short interval”. For the same compound, the cooling effect ([3]; Example 12, toothpick, 0.01 mg, tongue) was “a distinct cooling effect is noticeable after a short period of time”, the cooling effect ([3]; Example 17, mint sweet, 0.05%, mouth) was “characteristic cooling effect in the mouth of peppermint” and the cooling effect ([3]; Example 25, water soluble adhesive on label, 0.025%, tongue) was “a pleasant cooling sensation on the tongue”. For the same compound, the cooling effect ([6]; Example 20, indigestion tablet) was “after a short interval of time a noticeable cooling effect in the stomach” and the cooling effect ([6]; Example 23, soluble aspirin tablet) was “a quite noticeable cooling effect developed in the stomach after a short interval”.
In the case of CCCOC(=O)CCNC(=O)C1CC(C)CCC1C(C)C (stereo not drawn) [N-p-menth-3-oyl-β-aminopropionic acid n-propyl ester], the cooling effect ([3]; Example 19, ice cream, 0.05%) is reported as “a cooling effect is noticeable which persists after the cooling effect attributable to the temperature of the ice cream has disappeared”.
With CCCOC(=O)CNC(=O)C1CC(C)CCC1C(C)C (stereo not shown) [H, --CH2 COOC3 H7 (n), N-(p-menth-3-oyl)glycine n-propyl ester] the “Threshold” value [1] was 0.3 µg and the cooling effect ([2]; Example 22, antipruritic ointment, 0.1%, skin) was “soothing effect on the skin accompanied by a noticeable cooling effect”.
